Consider four compounds from US20200261534A1, “NEW TREATMENTS OF MULTIPLE MYELOMA” (priority 2017, published 2020).

Holding throughout (format): cell-based
The subject of test [1] is RAMOS, B lymphocyte (Burkitt's Lymphoma). As to the kind of experiment: MTT viability assay, RAMOS. As for the experimental part:
RAMOS, B lymphocyte (Burkitt's Lymphoma), ATCC: CRL-1596 […] During the amplification step and the assays adherent cells were rinsed with DPBS (Dulbecco's Phosphate Buffered Saline, Sigma D1283) three times and afterward treated for 5 minutes with trypsin ([…]) (Gibco-BRL, 15400054) in solution of DPBS at 37° C., and, once detached, transferred in the culturing medium. No-adherent cells were centrifuged and transferred in the culturing medium. Cells were counted in a Neubauer chamber after labelling with Tripan-Blue. […] Cells were seeded at a density of 10000 cells/well in 100 μl of medium in 96 well plates. […] Controls are the untreated cells. Each experiment was performed in triplicate. Cells were incubated with the compounds at the indicated concentrations during 24-72 h in incubator under CO2 atmosphere at 37° C. […] Stock solution of MTT (475989 Calbiochem) was 5 mg/ml in PBS. 1×.10 μl/well of MTT solution were added and the plate was incubated for 3-4 hr. […] Plates were incubated for 16 h at room temperature under orbital shaking. Absorbance at 570 nm was finally measured. […] The dose/response curve was fitted through the sigmoidal equation dose-response (variable slope) and the IC50 values were calculated as follow: Y=Bottom+(Top−Bottom)/(1+10^{[(LogIC50−X)*HillSlope]},

For test [2], the system named is A549, epithelial (lung cancer). As to the kind of experiment: MTT viability assay, A549. How it is done: A549, epithelial (lung cancer), ATCC: CCL-185
(§1) Cell lines A549, MCF-7 and RAMOS were cultured in incubator under CO2 (6%) at 37° C. in DMEM high glucose (Dulbecco's Modified Eagle Solution, Gibco-BRL 31966-21) medium with 10% fetal bovine serum inactivated (FBS) (Gibco-BRL 10106-169). Cell lines HL-60 and MM.1S were cultured in incubator at 37° C. in RPMI-1640 (Sigma R8758) medium with 10% of fetal bovine serum inactivated (FBS) and 2 mM glutamine (Sigma G7513). Cell lines BJ were cultured in incubator under CO2 (6%) at 37° C. in Eagle's Minimum Essential Medium (Sigma, M-2279) with 10% fetal bovine serum inactivated (FBS) (Gibco-BRL 10106-169).
During the amplification step and the assays adherent cells were rinsed with DPBS (Dulbecco's Phosphate Buffered Saline, Sigma D1283) three times and afterward treated for 5 minutes with trypsin ([…]) (Gibco-BRL, 15400054) in solution of DPBS at 37° C., and, once detached, transferred in the culturing medium. No-adherent cells were centrifuged and transferred in the culturing medium. Cells were counted in a Neubauer chamber after labelling with Tripan-Blue. […]
(§2) Cells were incubated with the compounds at the indicated concentrations during 24-72 h in incubator under CO2 atmosphere at 37° C. Then, cell viability was measured by means of MTT (3-(4,5-dimethylthiazol-2-yl)-2,5-diphenyltetrazolium bromide) assay. Stock solution of MTT (475989 Calbiochem) was 5 mg/ml in PBS. 1×.10 μl/well of MTT solution were added and the plate was incubated for 3-4 hr. The medium was discarded and 100 μl of extracting buffer (PBS 1×, 15% SDS, 50% […] N,N-Dimethylformamide, pH 4.7) were added to each well. Plates were incubated for 16 h at room temperature under orbital shaking. Absorbance at 570 nm was finally measured. As negative control (experiment noise) 3 wells were treated with 20 μl/well of a solution of SDS 10% in H2O.
Data analysis was performed calculating the percentage of cell viability normalized vs. the values of negative control, which was considered equal to 100%. The dose/response curve was fitted through the sigmoidal equation dose-response (variable slope) and the IC50 values were calculated as follow: […]
On the technique in general: Tetrazolium assays rely on reduction of a dye to a coloured formazan, in cell work by metabolically active cells.

In test [3] the test system is MM.1S, B Lymphoblast (multiple myeloma). In words: MTT viability assay, MM.1S. How it is done:
MM.1S, B Lymphoblast (multiple myeloma), ATCC: CRL-2974
as §1
During the amplification step and the assays adherent cells were rinsed with DPBS (Dulbecco's Phosphate Buffered Saline, Sigma D1283) three times and afterward treated for 5 minutes with trypsin ([…]) (Gibco-BRL, 15400054) in solution of DPBS at 37° C., and, once detached, transferred in the culturing medium. No-adherent cells were centrifuged and transferred in the culturing medium. Cells were counted in a Neubauer chamber after labelling with Tripan-Blue.
Cells were seeded at a density of 10000 cells/well in 100 μl of medium in 96 well plates. After 24 h, the compounds to be tested were added to calculate the dose/response curve at the starting concentration of 100 μM with serial dilutions (1:1). Controls are the untreated cells. Each experiment was performed in triplicate.
as §2
Data analysis was performed calculating the percentage of cell viability normalized vs. the values of negative control, which was considered equal to 100%. The dose/response curve was fitted through the sigmoidal equation dose-response (variable slope) and the IC50 values were calculated as follow:
Y=Bottom+(Top−Bottom)/(1+10^{[(LogIC50−X)*HillSlope]},
All cell lines were cultured in incubator at 37° C. in RPMI-1640 (Sigma R8758) medium with 10% of fetal bovine serum inactivated (FBS) and 2 mM glutamine (Sigma G7513). During the amplification step cells were centrifuged and transferred into the culturing medium. Cells were counted in a Neubauer chamber after labelling with Tripan-Blue.
as §2, with “peptidomimetic compound (S09)” for “compounds”
Cell lines A549 and MBA-MD231 were cultured in incubator under CO2 (6%) at 37° C. in DMEM high glucose (Dulbecco's Modified Eagle Solution, Gibco-BRL 31966-21) medium with 10% fetal bovine serum inactivated (FBS) (Gibco-BRL 10106-169). […]

[4] abbreviates: Ramos, same protocol as Example 2, Table 6, read-out: Compound (IC50).
[5] abbreviates: A549, same protocol as Example 2, Table 6, read-out: Compound (IC50).
The mark [6] stands for this setting: MM.1S, same protocol as Example 2, Table 6, read-out: Compound (IC50).

Read-outs that look alike come from different tables or passages of the source. Starred links: 1 amine or outer side, 2 acyl side, 3 side chain; linkers in the order of their positions; H or OH if unused. Positions of bridges follow the written chain, without caps; N, C: chain ends. Non-standard residues stand in square brackets, D forms with d. Residues, ends and D or L forms follow the SMILES beside them. ξ: configuration not given here. ξαMeNle(6-ylidene) = CC(CCCC=[*:3])(N[*:1])C(=O)[*:2]; X1 = CC(CCCCCCC=[*:3])(N[*:1])C(=O)[*:2] Bounds are passed on as bounds.

One may read the IC50 as the midpoint of a concentration-inhibition curve. As for `CC[C@H](C)[C@@H]1NC(=O)[C@H](Cc2ccc(O)cc2)NC(=O)[C@H](C)NC(=O)[C@H]([C@@H](C)O)NC(=O)[C@H](C)NC(=O)C(C)(NC(=O)[C@H](CCCCN)NC(=O)[C@H](CC(C)C)NC(=O)[C@@H](NC(=O)[C@@H](NC(=O)[C@@H](NC(=O)[C@H](CCCCN)NC(=O)[C@@H]2CCCN2C(=O)[C@H](C)N)C(C)C)C(C)C)[C@@H](C)CC)CCCCCCC=CCCCC(C)(C(=O)N[C@H](C(=O)O)C(C)C)NC(=O)[C@H](CC(C)C)NC1=O` (some centres unmarked) [IDP-S23, APKVVILKXATAYILXV] (H-APKVVILK[X1]ATAYIL[ξαMeNle(6-ylidene)]V-OH; staple 9-16), the IC50 in test [1] (setting [4]), in test [2] (setting [5]) and in test [3] (setting [6]) was greater than 100 µM throughout.

With `CC[C@H](C)[C@H](NC(=O)[C@H](Cc1ccc(O)cc1)NC(=O)[C@H](C)NC(=O)C1(C)CCCC=CCCCCCCC(C)(NC(=O)[C@H](CCCCN)NC(=O)[C@@H]2CCCN2C(=O)[C@H](C)N)C(=O)N[C@@H](C(C)C)C(=O)N[C@@H]([C@@H](C)CC)C(=O)N[C@@H](CC(C)C)C(=O)N[C@@H](CCCCN)C(=O)N[C@@H](CCCCN)C(=O)N[C@@H](C)C(=O)N1)C(=O)N[C@@H](CC(C)C)C(=O)N[C@@H](CO)C(=O)O` (some centres unmarked) [S09, APKXVILKKAXAYILS—OH] (H-APK[X1]VILKKA[ξαMeNle(6-ylidene)]AYILS-OH; staple 4-11; N-terminus assumed), the IC50 was roughly 28 µM in test [1] (Ramos, MTT, incubation 24-72 h, Table 3, read-out: IC50 values); roughly 28 µM in test [1] (setting [4]); 6.3 ± 0.5 µM in test [2] (A549, MTT, 24-72 h, Table 12, read-out: IC50 values); 9.4 ± 4.1 µM in test [2] (A549, MTT, incubation 24-72 h, Table 3, read-out: IC50 values); 9.4 ± 4.1 µM in test [2] (setting [5]); 7.5 µM in test [3] (MM1S, MTT, 24-72 h, Table 7, read-out: IC50 values in μM for S09). Besides, the IC50 is roughly 6.2 µM in test [3] (MM.1S, MTT, incubation 24-72 h, Table 3, read-out: IC50 values) and roughly 6.2 µM in test [3] (setting [6]).

On to `CC[C@H](C)[C@@H]1NC(=O)[C@H](Cc2ccc(O)cc2)NC(=O)[C@H](C)NC(=O)[C@H]([C@@H](C)O)NC(=O)[C@H](C)NC(=O)[C@H](CCCCN)NC(=O)C(C)(NC(=O)[C@H](CC(C)C)NC(=O)[C@@H](NC(=O)[C@@H](NC(=O)[C@@H](NC(=O)[C@H](CCCCN)NC(=O)[C@@H]2CCCN2C(=O)[C@H](C)N)C(C)C)C(C)C)[C@@H](C)CC)CCCCCCC=CCCCC(C)(C(=O)N[C@@H](CO)C(=O)O)NC1=O` (some centres unmarked) [IDP-S18, APKVVILXKATAYIXS] (H-APKVVIL[X1]KATAYI[ξαMeNle(6-ylidene)]S-OH; staple 8-15; N-terminus and C-terminus assumed), for which the IC50 in test [1], in test [2] and in test [3] was greater than 100 µM each time.

Turning to `CC[C@H](C)[C@H](NC(=O)[C@H](Cc1ccc(O)cc1)NC(=O)C1(C)CCCC=CCCCCCCC(C)(NC(=O)[C@@H](NC(=O)[C@H](CCCCN)NC(=O)[C@@H]2CCCN2C(=O)[C@H](C)N)C(C)C)C(=O)N[C@@H]([C@@H](C)CC)C(=O)N[C@@H](CC(C)C)C(=O)N[C@@H](CCCCN)C(=O)N[C@@H](CCCCN)C(=O)N[C@@H](C)C(=O)N[C@@H]([C@@H](C)O)C(=O)N1)C(=O)N[C@@H](CC(C)C)C(=O)N[C@@H](CO)C(=O)O` (some centres unmarked) [IDP-S21, APKVXILKKATXYILS] (H-APKV[X1]ILKKAT[ξαMeNle(6-ylidene)]YILS-OH; staple 5-12), the 50% inhibitory concentration (IC50) in test [1] (setting [4]), in test [2] (setting [5]) and in test [3] (setting [6]) was greater than 100 µM in each case.
